{"source": "patent US12385839B2", "about": "“Use of protein in predicting drug properties” (priority 2021, dated 2025)", "key": {"[1]": {"target": "T1, human serum albumin (HSA) (Homo sapiens, UniProt P02768)", "T1 sequence (P02768 25-609)": "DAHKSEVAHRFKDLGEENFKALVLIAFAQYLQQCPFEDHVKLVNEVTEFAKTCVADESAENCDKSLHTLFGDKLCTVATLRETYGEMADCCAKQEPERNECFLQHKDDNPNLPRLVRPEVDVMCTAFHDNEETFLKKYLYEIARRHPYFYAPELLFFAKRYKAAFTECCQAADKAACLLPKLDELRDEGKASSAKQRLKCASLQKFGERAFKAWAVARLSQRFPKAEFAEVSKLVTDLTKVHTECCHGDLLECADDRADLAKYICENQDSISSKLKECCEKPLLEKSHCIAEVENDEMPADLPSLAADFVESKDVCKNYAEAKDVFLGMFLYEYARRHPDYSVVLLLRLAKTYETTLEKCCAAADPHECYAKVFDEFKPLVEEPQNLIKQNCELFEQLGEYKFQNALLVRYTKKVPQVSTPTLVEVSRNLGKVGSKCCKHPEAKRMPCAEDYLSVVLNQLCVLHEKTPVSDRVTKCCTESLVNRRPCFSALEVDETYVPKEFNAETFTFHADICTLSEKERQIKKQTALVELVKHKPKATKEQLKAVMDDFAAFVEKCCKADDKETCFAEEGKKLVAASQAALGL", "assay": "Fluorescence emission spectrum (quenching) of HSA with carbamate pesticides", "format": "binding", "details": "for Ksv (37°) / ΔG(37°) / Binding distance/r / Number of binding sites/n: modelling table; for Kq / Ksv / n (number of binding sites) / Kd: pH 7.4; for R (binding distance): Förster energy transfer; for fluorescence of HSA quenched by pesticide: titration of pesticide; for Kd: Ka (binding constant); for ΔH^0 / ΔS^0: Van't Hoff, 296-310 K", "description": "the mixed solution to be tested was preheated at […] for 3 minutes, and the emission spectrum of HSA with carbamate pesticides was measured at 300-500 nm . The excitation wavelength was set at 280 nm , and the slit width for both excitation and emission was 15 nm; the HSA concentration was kept constant at 5×10^−7 M, and the pesticide concentration was (0-105)×10^−7 M.\nThe internal filtering effect of fluorescence signal was corrected according to the following formula: Fcor=Fobsexp[(Aex+Aem)/2] (1);\nin this formula, Fcor and Fobs represent corrected fluorescence signal and observed fluorescence signal, respectively, and Aex and Aem represent absorbance of the mixed solution to be tested at excitation wavelength and emission wavelengths, respectively; the quenching constant, number of binding sites, binding constant, free energy and binding distance of different drugs were obtained by fluorescence emission spectra, and a BP neural network model was obtained. Specifically, they were obtained as follows:\nThere is a linear relationship between F0/F and [Q] to distinguish whether it is static quenching or dynamic quenching. The fluorescence quenching data are analyzed by Stern-Volmer equation to clarify the quenching mechanism: F0/F=1+KSV[Q]=1+Kqτ0[Q] (2);\nin the formula, F0 and F are fluorescence signals […] quencher, respectively. Ksv is Stern-Volmer quenching constant; Kq is a quenching rate constant of biomolecules; τ0 is the average lifetime of biomolecules without quencher (about 10^−8 s); [Q] is the concentration of quencher.\nThe maximum dynamic quenching rate constant of all kinds of quenchers on polymers was 2.0×10^10 L·mol^−1·s^−1. Static quenching and dynamic quenching could be judged according to this value. If K^q was greater than 2.0×10^10 L·mol^−1·s^−1, it belonged to static quenching. Otherwise, it belonged to dynamic quenching.\nIn this part, the binding sites and binding constants between carbamate pesticides and HSA were calculated. The following formula was used to calculate the number of binding sites (n) and the binding constant (Ka) of carbamate pesticides and HSA: log[(F0−F)/F]=log Ka+nlog[Q] (3);\nThe interactions between biological molecules and drug molecules were weak intermolecular interactions, including hydrogen bonds, van der Waals forces, electrostatic forces and hydrophobic interactions. By using Van't Hoff equation, the thermodynamic constants of drug-protein interaction were obtained, and the main types of drug-protein interaction were judged according to the changes of binding constants under different conditions. LnK=−ΔH^0/RT+ΔS^0/R (4); ΔG^0=ΔH^0−TΔS^0 (5);\nThere is a relationship among energy transfer efficiency E, distance r between energy donor and energy receptor and energy transfer distance R0. E=1−F/F0=R0^6/(R0^6+r^6) (6);\nE represents the transfer efficiency between donor and receptor, r is the average distance between donor and receptor, and R0 is the critical distance when the transfer efficiency is 50%. R0^6=8.79×10^−K^2N^−4φJ (7)\nK^2 is the orientation related to the geometry of donor and receptor of dipole. For random orientation in fluid, K^2=2/3; N is the average refractive index of the medium in the wavelength range with obvious spectral overlap, and the refractive index of water and organic matter is 1.336; φ is the quantum yield of donor, and the quantum yield of tryptophan in HSA is about 0.118; J represents the influence of spectral overlap between the emission spectrum of the donor and the absorption spectrum of the receptor, and can be calculated by the following formula: j=ΣF(λ)ϵ(λ)λ^4Δλ/ΣF(λ) Δλ (8);\nF(λ) is the corrected fluorescence signal of the donor in the wavelength range from λ to (λ+Δλ), while ϵ(λ) is the extinction coefficient of the receptor at λ."}, "[2]": {"target": "T1, human serum albumin (HSA)", "assay": "Circular dichroism spectrum, secondary structure (α-helix content) of HSA", "details": "HSA 2×10^−6 M", "description": "the mixed solution to be tested was preheated at […] for 2-5 minutes, and the CD spectrum of HSA was recorded in the wavelength range of 200-500 nm . The concentration of HSA was kept at 2×10^−6 M, and the pesticide was (0-20)×10^−6 m. Firstly, HSA was measured, and then the ratio of HSA to pesticides needed to be determined specifically, which was preliminarily determined according to the ratio of 1:1, 1:2 and 1:3.\nAccording to the following equation, the result of CD spectrum was usually expressed as the mean residue ellipticity (MRE), and the unit was deg·cm^2·dmol^−1. MRE=ObservedCD(mdeg)/(10Cpnl) (9);\nin which Cp is the molar concentration of protein, n is the number (585) of amino acid residues, and 1 is the path length (1 mm). The α helicity of free and bound HSA is calculated from MRE values using the following formula: α−Helix(%)=[(−MRE208−4000)×100]/(33000-4000) (10)\nin which the MRE208 is the MRE value observed at 208 nm , 4000 is the MRE value of random coil conformation at 208 nm , and […] is the MRE value of pure α helix at 208 nm ."}, "[3]": {"details": "cited from earlier work; for LD50: modelling table; for Toxicity: toxicity grade by LD50, trailing figure = number of pesticides in group"}}}
{"smiles": "CNC(=O)ON=C(CSC)C(C)(C)C", "note": "[Thiofanox, thiofanox]", "values": [{"measurement": "Ksv (37°)", "setting": "[1]", "value": 58762.03726}, {"measurement": "ΔG(37°)", "setting": "[1]", "value": "−20.27"}, {"measurement": "ΔG^0", "setting": "[1]; 296 K", "value": -4.2899, "unit": "kcal/mol"}, {"measurement": "Kq", "setting": "[1]; 296 K", "value": "3.871 ± 0.035 10^12 M^−1s^−1"}, {"measurement": "Ksv", "setting": "[1]; 296 K", "value": "3.871 ± 0.035 10^4 M^−1"}, {"measurement": "n (number of binding sites)", "setting": "[1]; 296 K", "value": "0.714 ± 0.014"}, {"measurement": "ΔG^0", "setting": "[1]; 303 K", "value": -4.5667, "unit": "kcal/mol"}, {"measurement": "Kq", "setting": "[1]; 303 K", "value": "4.728 ± 0.064 10^12 M^−1s^−1"}, {"measurement": "Ksv", "setting": "[1]; 303 K", "value": "4.728 ± 0.064 10^4 M^−1"}, {"measurement": "n (number of binding sites)", "setting": "[1]; 303 K", "value": "0.725 ± 0.005"}, {"measurement": "ΔG^0", "setting": "[1]; 310 K", "value": -4.8435, "unit": "kcal/mol"}, {"measurement": "R (binding distance)", "setting": "[1]; 310 K", "value": 1.883, "unit": "nm"}, {"measurement": "Kq", "setting": "[1]; 310 K", "value": "5.876 ± 0.198 10^12 M^−1s^−1"}, {"measurement": "Ksv", "setting": "[1]; 310 K", "value": "5.876 ± 0.198 10^4 M^−1"}, {"measurement": "n (number of binding sites)", "setting": "[1]; 310 K", "value": "0.730 ± 0.003"}, {"measurement": "fluorescence of HSA quenched by pesticide", "setting": "[1]; 310 K", "value": "quenched"}, {"measurement": "Kd", "setting": "[1]; 296 K", "value": 688, "unit": "µM"}, {"measurement": "Kd", "setting": "[1]; 303 K", "value": 496, "unit": "µM"}, {"measurement": "Kd", "setting": "[1]; 310 K", "value": 390, "unit": "µM"}, {"measurement": "ΔH^0", "setting": "[1]", "value": 7.4152, "unit": "kcal/mol"}, {"measurement": "ΔS^0", "setting": "[1]", "value": 165.452, "unit": "J · mol^−1 · K^−1"}, {"measurement": "Binding distance/r", "setting": "[1]", "value": 1.883}, {"measurement": "Number of binding sites/n", "setting": "[1]", "value": 0.7299}, {"measurement": "α-helix contents", "setting": "[2]; 5:1 (Pesticide:HSA)", "value": 48.904, "unit": "%"}, {"measurement": "α-helix contents", "setting": "[2]; 10:1 (Pesticide:HSA)", "value": 48.180, "unit": "%"}, {"measurement": "LD50", "setting": "[3]", "value": 8.5, "unit": "mg/kg"}, {"measurement": "Toxicity", "setting": "[3]", "value": "Highly"}]}
{"smiles": "CCSCc1ccccc1OC(=O)NC", "note": "[Ethiofencarb, ethiofencarb]", "values": [{"measurement": "Ksv (37°)", "setting": "[1]", "value": 41346.56830}, {"measurement": "ΔG(37°)", "setting": "[1]", "value": "−17.7"}, {"measurement": "ΔG^0", "setting": "[1]; 296 K", "value": -3.4355, "unit": "kcal/mol"}, {"measurement": "Kq", "setting": "[1]; 296 K", "value": "2.562 ± 0.137 10^12 M^−1s^−1"}, {"measurement": "Ksv", "setting": "[1]; 296 K", "value": "2.562 ± 0.137 10^4 M^−1"}, {"measurement": "n (number of binding sites)", "setting": "[1]; 296 K", "value": "0.613 ± 0.003"}, {"measurement": "ΔG^0", "setting": "[1]; 303 K", "value": -3.8329, "unit": "kcal/mol"}, {"measurement": "Kq", "setting": "[1]; 303 K", "value": "3.301 ± 0.074 10^12 M^−1s^−1"}, {"measurement": "Ksv", "setting": "[1]; 303 K", "value": "3.301 ± 0.074 10^4 M^−1"}, {"measurement": "n (number of binding sites)", "setting": "[1]; 303 K", "value": "0.645 ± 0.009"}, {"measurement": "ΔG^0", "setting": "[1]; 310 K", "value": -4.2302, "unit": "kcal/mol"}, {"measurement": "R (binding distance)", "setting": "[1]; 310 K", "value": 2.363, "unit": "nm"}, {"measurement": "Kq", "setting": "[1]; 310 K", "value": "4.135 ± 0.166 10^12 M^−1s^−1"}, {"measurement": "Ksv", "setting": "[1]; 310 K", "value": "4.135 ± 0.166 10^4 M^−1"}, {"measurement": "n (number of binding sites)", "setting": "[1]; 310 K", "value": "0.674 ± 0.002"}, {"measurement": "fluorescence of HSA quenched by pesticide", "setting": "[1]; 310 K", "value": "quenched"}, {"measurement": "Kd", "setting": "[1]; 296 K", "value": 2920, "unit": "µM"}, {"measurement": "Kd", "setting": "[1]; 303 K", "value": 1710, "unit": "µM"}, {"measurement": "Kd", "setting": "[1]; 310 K", "value": 1050, "unit": "µM"}, {"measurement": "ΔH^0", "setting": "[1]", "value": 13.365, "unit": "kcal/mol"}, {"measurement": "ΔS^0", "setting": "[1]", "value": 237.483, "unit": "J · mol^−1 · K^−1"}, {"measurement": "Binding distance/r", "setting": "[1]", "value": 2.363}, {"measurement": "Number of binding sites/n", "setting": "[1]", "value": 0.6742}, {"measurement": "α-helix contents", "setting": "[2]; 5:1 (Pesticide:HSA)", "value": 49.087, "unit": "%"}, {"measurement": "α-helix contents", "setting": "[2]; 10:1 (Pesticide:HSA)", "value": 48.340, "unit": "%"}, {"measurement": "LD50", "setting": "[3]", "value": 200, "unit": "mg/kg"}, {"measurement": "Toxicity", "setting": "[3]", "value": "Moderately"}]}
